This test has as its target T1, PDE 7 (phosphodiesterase VII) (Homo sapiens, UniProt Q13946).
T1 construct: endogenous in cells; host or cells: MOLT-4 (ATCC CRL-1582), soluble fraction, HiTrap Q column, fraction eluting at about 350 mM NaCl
As to the kind of experiment: PDE 7 inhibiting effect (Biological Test 1; 3H-cAMP hydrolysis by PDE 7 active fraction from MOLT-4 cells). In kind it is biochemical. The note with it: PDE 7 fraction from MOLT-4 cells; 0.064 μM cAMP, 10 μM rolipram present, 2 hours at 25° C.; read-out: PDE 7 inhibiting activities, IC50. As to the method: The PDE 7 (phosphodiesterase VII) inhibiting effect of the compounds of the present invention was performed by the following method, which was modified assay method described in Biochemical. Pharmacol. 48(6), 1219-1223 (1994).
(1) The active fraction of PDE 7 (phosphodiesterase VII) was obtained. That is, MOLT-4 (obtainable from ATCC as ATCC No. CRL-1582), which was cell line of human acute lymphoblastic lymphoma T cells, was incubated in RPMI1640 culture medium containing 10% fetal bovine serum to obtain 5×10^8 MOLT-4 cells. The cells were collected by centrifugation and suspended with 10 mL of buffer solution A [25 mM of tris-HCl, 5 mM of 2-mercaptoethnol, 2 mM of benzamidine, 2 mM of EDTA, 0.1 mM of 4-(2-aminoethyl) benzensulfonyl hydrochloride; pH 7.5], then homogenized by Polytron® homogenizer. The homogenate were centrifuged under 25,000×G for 10 minutes at 4° C. The supernatant was separated and thus obtained supernatant was further centrifuged under 100,000×G for 60 minutes at 4° C., and then filtrated with 0.2 μm filter to obtain the soluble fraction. (2) The obtained soluble fraction was filled in equilibrium HiTrap Q column (5 mL×2) with buffer solution A, and phosphodiesterase fractions were eluted by 300 mL of buffer solution A with linear gradient from 0 to 0.8 M NaCl concentration. 5 ml each of 60 eluents were collected, and each eluents were examined for cyclic AMP metabolic activities of phosphodiesterase. The fraction eluting with about 350 mM NaCl concentration parts, where metabolic activities were not inactivated by 10 μM of rolipram (selective inhibitor for phosphodiesterase IV) and 10 μM of milrinone (selective inhibitor for phosphodiesterase III), were collected as storage solution for using to test PDE 7 inhibiting effect. […] Further, SEPHADEX®-QAE (cross-linked dextran gel) was added to the obtained supernatant and the mixture was leaved at rest for 5 minutes, then, the radioactivity of the solution was measured. […]

Molecules are shown by their SMILES.

T1 sequence (Q13946 whole entry): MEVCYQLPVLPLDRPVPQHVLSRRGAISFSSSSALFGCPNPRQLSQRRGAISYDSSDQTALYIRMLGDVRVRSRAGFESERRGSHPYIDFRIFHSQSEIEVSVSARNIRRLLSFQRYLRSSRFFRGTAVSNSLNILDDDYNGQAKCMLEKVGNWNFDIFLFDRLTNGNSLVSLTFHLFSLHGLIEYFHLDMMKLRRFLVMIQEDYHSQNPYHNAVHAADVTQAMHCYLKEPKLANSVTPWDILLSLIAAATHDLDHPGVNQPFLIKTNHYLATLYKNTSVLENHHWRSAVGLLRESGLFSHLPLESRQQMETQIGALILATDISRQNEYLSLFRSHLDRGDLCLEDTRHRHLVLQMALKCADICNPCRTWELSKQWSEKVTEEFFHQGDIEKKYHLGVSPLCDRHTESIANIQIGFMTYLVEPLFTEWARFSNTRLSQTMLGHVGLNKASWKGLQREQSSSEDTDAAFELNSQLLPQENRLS

For `COc1ccccc1-c1nc2c(C)nc(C3CCCCC3)n2c(=O)[nH]1` [Compound 8, 6-Cyclohexyl-2-(2-methoxyphenyl)-8-methylimidazo[1,5-a][1,3,5]-triazin-4(3H)-one], the IC50 – broadly, the concentration at which inhibition is half-maximal – turned out to be 340 nM. As to `COc1cc(N2CCN(C)CC2)ccc1-c1nc2c(C)nc(C3CCCCC3)n2c(=O)[nH]1` [Compound 11, 6-Cyclohexyl-2-[2-methoxy-4-(4-methyl-1-piperadinyl)phenyl]-8-methylimidazo[1,5-a][1,3,5]triazin-4(3H)-one], the IC50 stood at 55 nM. As for `COc1ccccc1-c1nn2c(C)nc(C3CCCCC3)c2c(=O)[nH]1` [Compound 12, 5-Cyclohexyl-2-(2-methoxyphenyl)-7-methylimidazo-[5,1-f][1,2,4]triazin-4(3H)-one], the IC50 is 490 nM.

(Values after US7713972B2, “Imidazotriazinone derivatives as PDE 7 (phosphodiesterase 7) inhibitors” (Asubio Pharma Co., Ltd., priority 2003, dated 2010).)
